The values below come from ChEMBL document CHEMBL1129522, “Inhibitors of acyl-CoA:cholesterol O-acyltransferase. 17. Structure-activity relationships of several series of compounds derived from N-chlorosulfonyl isocyanate” (J Med Chem, 1996).

Assay [1] concerns the target T1, Sterol O-acyltransferase 1 (Rattus norvegicus) (UniProt O70536).
T1 sequence (whole entry): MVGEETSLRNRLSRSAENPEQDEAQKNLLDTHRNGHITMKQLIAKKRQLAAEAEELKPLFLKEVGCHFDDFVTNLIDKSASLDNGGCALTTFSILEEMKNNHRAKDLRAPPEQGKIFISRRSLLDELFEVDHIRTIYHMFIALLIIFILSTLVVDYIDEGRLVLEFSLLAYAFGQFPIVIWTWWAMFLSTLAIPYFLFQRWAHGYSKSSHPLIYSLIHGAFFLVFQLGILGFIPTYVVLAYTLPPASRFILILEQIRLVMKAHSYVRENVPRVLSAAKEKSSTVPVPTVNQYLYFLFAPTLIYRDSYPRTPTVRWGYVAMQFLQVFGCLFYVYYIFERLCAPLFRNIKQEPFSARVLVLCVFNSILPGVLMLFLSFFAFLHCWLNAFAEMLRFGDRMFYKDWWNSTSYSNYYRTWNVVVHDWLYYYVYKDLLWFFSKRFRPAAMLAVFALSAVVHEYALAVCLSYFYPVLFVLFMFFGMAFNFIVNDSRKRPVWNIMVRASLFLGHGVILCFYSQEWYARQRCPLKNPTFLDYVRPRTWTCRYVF
Put plainly: Acute in vivo activity was measured by the total plasma cholesterol concentration levels(TC) at dose 50 mg/kg. Type of assay: functional, organism-based. Also on record: dose 50 mg/kg.

Assay [2] has as its target T2, Sterol O-acyltransferase 1 (Rattus norvegicus, UniProt O70536).
T2 sequence (O70536 whole entry): T1 sequence (whole entry)
Put plainly: In vitro inhibitory activity against acyl coenzyme A:cholesterol acyltransferase 1 in microsomes of rat liver.

Assay [3] deals with T1, Sterol O-acyltransferase 1 (Rattus norvegicus). Description: Chronic in vivo activity was measured by the concentration of high density lipoproteins (HDL) in cholesterol fed rats. Type of assay: functional, organism-based.
Assay [4] shares this target. Description: Chronic in vivo activity was measured by the total cholesterol concentration levels in cholesterol fed rats. Format: functional, organism-based.
Assay [5] deals with Rattus norvegicus. Put plainly: Acute in vivo activity measured by total plasma cholesterol concentration levels (TC) at 30 mg/kg dose. Type of assay: functional.
In assay [6] the target is T1, Sterol O-acyltransferase 1 (Rattus norvegicus). Put plainly: Acute in vivo activity was measured by the total plasma cholesterol concentration levels(TC) at dose 3 mg/kg. Type of assay: functional, organism-based. Further details: dose 3 mg/kg.

Structures are written as SMILES. Values joined by “and” are separate entries in the source; they are usually repeats but may differ in a detail not shown here. Equal entries are not always repeated.

As for `CC(C)(C)c1cccc(C(C)(C)C)c1OC(=O)NS(=O)(=O)NCC(c1ccccc1)c1ccccc1`, the Delta TC in assay [1] is -32%. This molecule also gave an IC50 in assay [2] of 21.8 µM.
`CC(C)c1cccc(C(C)C)c1NC(=O)NS(=O)(=O)NCC(c1ccccc1)c1ccccc1`: in assay [1], the Delta TC is -20%. The molecule also yielded an IC50 in assay [2] of 5.9 µM.
Consider `CC(C)c1ccc(C(C)C)c(NC(=O)NS(=O)(=O)Oc2c(C(C)C)cccc2C(C)C)c1`, for which, in assay [3], the Delta HDL worked out at 5%. Further, the Delta TC in assay [4] was -43%; in assay [5], -43%; in assay [6], -1%. Also, the midpoint of inhibition in assay [2], the IC50, lay at 8.7 µM.
In assay [3], `Cc1cc(C(C)(C)C)c(OC(=O)NS(=O)(=O)Nc2c(C(C)C)cccc2C(C)C)c(C(C)(C)C)c1` had a Delta HDL of 156%. In addition, the Delta TC was -38% in assay [4] and -56% in assay [1]. For the same molecule, the IC50 in assay [2] came to 13.5 µM.
`CCCCCCCCCCCCOS(=O)(=O)NC(=O)Oc1c(C(C)C)cccc1C(C)C` displayed a Delta HDL in assay [3] of 31%. Also, the Delta TC in assay [4] was -56%; in assay [5] it was -68%; in assay [6], -63%. This molecule showed an IC50 in assay [2] of 13 µM.
With `CC(C)c1cccc(C(C)C)c1OS(=O)(=O)NC(=O)Oc1c(C(C)(C)C)cc(C(C)(C)C)cc1C(C)(C)C`, in assay [3], the Delta HDL is 108%. Also, the Delta TC in assay [4] is -78%; in assay [5], -76%; in assay [6] it was -69%. This molecule yielded an IC50 in assay [2] of 26 µM.
Turning to `CC(C)(C)c1cccc(C(C)(C)C)c1OC(=O)NS(=O)(=O)N(Cc1ccccc1)Cc1ccccc1`, the Delta TC in assay [1] was -3%. Besides, the half-inhibitory concentration (IC50) in assay [2] amounted to 11 µM.
In turn, `CC(C)c1cccc(C(C)C)c1NC(=O)NS(=O)(=O)N(Cc1ccccc1)C(C)C` returned a Delta HDL in assay [3] of 150%. In addition, the Delta TC in assay [4] is -41%; in assay [1], -60%. In addition, half-maximal inhibition in assay [2] (IC50) was put at 0.4 µM.
As to `CC(C)c1cccc(C(C)C)c1NC(=O)NS(=O)(=O)N(Cc1ccccc1)Cc1ccccc1`, the Delta HDL in assay [3] turned out to be 183%. Also, the Delta TC was -28% in assay [4], -36% in assay [5] and -18% in assay [6]. In assay [2], this molecule registered an IC50 of 2.2 µM.
In assay [3], `CC(C)c1cccc(C(C)C)c1NC(=O)NS(=O)(=O)N(C(C)C)C(C)C` yielded a Delta HDL of 83%. For the same molecule, the Delta TC in assay [4] was -38%; in assay [1], -59%. Besides, inhibition in assay [2] was half-maximal at 0.24 µM (IC50).
The molecule `COc1cc(C(C)C)c(OC(=O)NS(=O)(=O)Oc2c(C(C)C)cccc2C(C)C)c(C(C)C)c1` had a Delta HDL in assay [3] of 8%. In addition, the Delta TC in assay [4] is -12%; in assay [5], -56%; in assay [6] it was 1%. The molecule further yielded an IC50 in assay [2] of more than 25 µM.
The molecule `Cc1cc(C(C)(C)C)c(OC(=O)NS(=O)(=O)NC(c2ccccc2)c2ccccc2)c(C(C)(C)C)c1` had a Delta HDL in assay [3] of 100%. The Delta TC in assay [4] is -25%; in assay [1], -42%. In assay [2], this molecule showed an IC50 of 11.5 µM.
As for `CC(C)c1cccc(C(C)C)c1NC(=O)NS(=O)(=O)NC(c1ccccc1)c1ccccc1`, the Delta TC in assay [1] was -14%. Further, the IC50 in assay [2] stood at 4.1 µM.
Regarding `CC(C)c1cccc(C(C)C)c1OC(=O)NS(=O)(=O)NC(c1ccccc1)c1ccccc1`, the Delta TC in assay [1] stood at 46%. Moreover, the IC50 in assay [2] is 10.6 µM.
Regarding `CCCCN(CCCC)S(=O)(=O)NC(=O)Nc1c(C(C)C)cccc1C(C)C`, the Delta TC in assay [4] was -52% and -40%; in assay [1], -66%; in assay [6] it was -64% and -52%.
`CC(C)c1cccc(C(C)C)c1OC(=O)NS(=O)(=O)NCC(c1ccccc1)c1ccccc1`: in assay [1], the Delta TC was -29%. In assay [2], this molecule yielded an IC50 of 49 µM.
As to `CC(C)c1cccc(C(C)C)c1OC(=O)NS(=O)(=O)Nc1nc2ccccc2[nH]1`, in assay [1], the Delta TC came out at 8%. The molecule further showed an IC50 in assay [2] of 52 µM.
In the same order, the values of `Cc1cc(C(C)(C)C)c(OC(=O)NS(=O)(=O)Nc2ccccc2)c(C(C)(C)C)c1` are -33% and 23.4 µM.
On to `COc1cccc(OC)c1OS(=O)(=O)NC(=O)Oc1c(C(C)C)cccc1C(C)C`, for which, in assay [3], the Delta HDL came out at 208%. Besides, the Delta TC in assay [4] is -62%; in assay [5], -70%; in assay [6], -63%. This molecule displayed an IC50 in assay [2] of more than 50 µM.
`CC(C)c1cccc(C(C)C)c1NC(=O)NS(=O)(=O)N(C(C)C)C(C)(C)C` had a Delta HDL in assay [3] of 43%. Moreover, the Delta TC in assay [4] was -48%; in assay [5], -17%; in assay [6], -55%. The same molecule yielded an IC50 in assay [2] of 0.14 µM.
In assay [3], `CC(C)c1cccc(C(C)C)c1NS(=O)(=O)NC(=O)Oc1c(C(C)C)cccc1C(C)C` showed a Delta HDL of 388%. Moreover, the Delta TC was -9% in assay [4] and -65% in assay [1]. In addition, the midpoint of inhibition in assay [2], the IC50, lay at 25.8 µM.
For `CC(C)c1cccc(C(C)C)c1NC(=O)NS(=O)(=O)Nc1c(C(C)C)cccc1C(C)C`, in that order: 80%, -37%, -54% and 11 µM.
Regarding `CC(C)c1cccc(C(C)C)c1OS(=O)(=O)NC(=O)Oc1c(C(C)(C)C)cccc1C(C)(C)C`, in assay [3], the Delta HDL came to 25%. Besides, the Delta TC in assay [4] is -64%; in assay [5] it was -70%; in assay [6], -50%. This molecule came in with a half-inhibitory concentration (IC50) in assay [2] of 12 µM.
Regarding `CC(C)(C)c1cccc(C(C)(C)C)c1OC(=O)NS(=O)(=O)Nc1ccccc1`, the Delta TC in assay [1] was -26%. In addition, half-maximal inhibition in assay [2] (IC50) was put at 19 µM.
For the molecule `CC(C)c1cccc(C(C)C)c1OC(=O)NS(=O)(=O)Nc1ccccc1`, the Delta HDL in assay [3] was determined as 240%. Further, the values for the Delta TC in assay [4] and in assay [1] were -33% and -55%, respectively. This molecule yielded an IC50 in assay [2] of 38.1 µM.
For `Cc1cc(C(C)(C)C)c(OC(=O)NS(=O)(=O)Oc2c(C(C)C)cccc2C(C)C)c(C(C)(C)C)c1`, the Delta HDL in assay [3] turned out to be 205%. Further, the Delta TC in assay [4] was -66%; in assay [5] it was -72%; in assay [6], -52%. In assay [2], this molecule had an IC50 of 7.7 µM.
`COc1cc(OC)c(OS(=O)(=O)NC(=O)Oc2c(C(C)C)cccc2C(C)C)c(OC)c1` showed a Delta HDL in assay [3] of 62%. In addition, the figures for the Delta TC in assay [4], in assay [5] and in assay [6] were -37%, -61% and -37%, respectively. This molecule gave a half-inhibitory concentration (IC50) in assay [2] of more than 50 µM.
`CCCN(CCC)S(=O)(=O)NC(=O)Nc1c(C(C)C)cccc1C(C)C` returned a Delta HDL in assay [3] of 78%. Also, the figures for the Delta TC in assay [4], in assay [5] and in assay [6] were -53%, -60% and -51%, respectively. Further, in assay [2], inhibition was half-maximal at 1.1 µM (IC50).
Molecule `CCCCCCCCCCCCOS(=O)(=O)NC(=O)Oc1c(C(C)(C)C)cc(C)cc1C(C)(C)C` showed a Delta HDL in assay [3] of 23%. For the same molecule, the Delta TC in assay [4] is -33%; in assay [5], -65%; in assay [6] it was -41%. In assay [2], this molecule displayed an IC50 of 52 µM.
In the same order, the values of `CC(C)c1cccc(C(C)C)c1OS(=O)(=O)NC(=O)Oc1c(C(C)C)c(C(C)C)c(F)c(C(C)C)c1C(C)C` are 208%, -74%, -71%, -47% and 13 µM.
As to `CC(C)c1cccc(C(C)C)c1NC(=O)NS(=O)(=O)NC1c2ccccc2-c2ccccc21`, the Delta TC in assay [1] is -4%. Besides, the IC50 in assay [2] is 25 µM.
As to `CC(C)c1cc(C(C)C)c(OC(=O)NS(=O)(=O)Oc2c(C(C)C)cccc2C(C)C)c(C(C)C)c1`, the Delta HDL in assay [3] came out at 153%. For the same molecule, the Delta TC in assay [4] was -74%; in assay [5] it was -79%; in assay [6], -57%. Also, the IC50 in assay [2] stood at 14 µM.
For `CC(C)c1cc(O)cc(C(C)C)c1OC(=O)NS(=O)(=O)Oc1c(C(C)C)cccc1C(C)C`, in that order: 95%, -25%, -55%, -5% and more than 50 µM.
In the same order, the values of `CC(C)c1cc(C(C)(C)C)cc(C(C)C)c1OC(=O)NS(=O)(=O)Oc1c(C(C)C)cccc1C(C)C` are 177%, -72%, -58%, -55% and 8.8 µM.
Regarding `Cc1cc(C(C)(C)C)c(OC(=O)NS(=O)(=O)NCC(c2ccccc2)c2ccccc2)c(C(C)(C)C)c1`, the Delta HDL in assay [3] amounted to 144%. Further, the Delta TC in assay [4] was -51%; in assay [1], -54%. This molecule also had an IC50 in assay [2] of 24.4 µM.
With `CC(C)c1cc(C(C)C)c(NC(=O)NS(=O)(=O)Oc2c(C(C)C)cccc2C(C)C)c(C(C)C)c1`, the Delta HDL in assay [3] stood at 18%. Moreover, the Delta TC in assay [4] was -59%; in assay [5] it was -68%; in assay [6], -51%. This molecule came in with an IC50 in assay [2] of 23 µM.
Consider `CC(C)c1cc(C(C)C)c(OS(=O)(=O)NC(=O)Oc2c(C(C)C)cccc2C(C)C)c(C(C)C)c1`, for which the Delta HDL in assay [3] is 295%. In addition, the Delta TC in assay [4] is -61%; in assay [5], -67%; in assay [6], -63%. Also, the IC50 in assay [2] was 29 µM.
